Test results: article PMC12144822 (Parasites & Vectors, 2025)

Columns and labels:
Assay in all cases: Two-electrode voltage-clamp concentration-activation by the natural agonist, receptor expressed in Xenopus oocytes
Format in all cases: cell-based
Clu-GABA α2β2γ2 = Clu-GABA α2β2γ2 (Canis lupus familiaris, UniProt A0A8I3RPG5+A0A8I3S1N5+E2RSQ0)
Description: (§1) Complementary DNA (cDNA) encoding for the human GABAA proteins α1 (NM_001127645.2), α2 (NM_001377146.1), α3 (KJ620007.1), α4 (NM_000809.4), α5 (NM_000810.4), α6 (NM_000811.3), β2 (XM_054352312.1), β3 (M82919.1), γ2 (NM_000816.3) and δ (NM_000815.5) were ordered from Genewiz (www.genewiz.com; Leipzig, Germany); for each gene, GenBank accession numbers are provided in parentheses. When necessary, silent mutations were introduced to break NheI or XhoI internal restriction sites. The corresponding open reading frames (ORF) were cloned into the pT7-TS transcription vector (introducing X. laevis β-globin untranslated cDNA to the 5’ and 3’ ends of the gene), following a procedure described in detail in a previous publication. The same process was used to obtain cDNA encoding canine GABAA proteins α4 (XM_025435560.1), α6 (XM_022417729.1) and δ (XM_005620414.2). Gene α2 (XM_025435664.1), α3 (XM_549343.5), α5 (XM_545805.6) and β3 (XM_025437408.1) were obtained by PCR; GenBank reference accession numbers are provided in parentheses. RNA extraction, cDNA synthesis and PCR amplification were performed as described previously. Total RNA was extracted from a piece of dog brain (Beagle breed; Canis lupus familiaris) from which 1 µg of total RNA (DNase-treated) was reverse-transcribed to cDNA using a (dT)30 primer and SuperScript III Reverse Transcriptase (Invitrogen, Thermo Fisher Scientific, Waltham, MA, USA). Gene-specific primers (Additional file 1: Table S1) were designed using Primer 3 software (http://frodo.wi.mit.edu/). […] The cycling conditions were: 98 °C for 30 s; then 38 cycles of 98 °C for 10 s, 58 °C for 30 s and 72 °C for 90 s; followed by 72 °C for 5 min. The dog subunits α1 (XM_546261.5), β2 (XM_014113040.1) and γ2 (XM_546259.5) had been previously amplified and described in a study by Rufener et al..
(§2) Defoliculated X. laevis oocytes ordered from Ecocyte Bioscience (Dortmund, Germany) were microinjected with 15–25 nl of cRNA solution (5–50 ng/μl) per oocyte using an automated injector (Roboinject; Multi Channel Systems MCS GmbH, Reutlingen, Germany) and then incubated at 18 °C. All recordings were made 1–5 days post-cRNA injection and were performed at 18 ± 4 °C. Cells were superfused with OR2 medium (NaCl 88 mM, KCl 2.5 mM, HEPES 5 mM, CaCl2•2H2O 1.8 mM, MgCl2•7H2O 1.0 mM, pH 7.4). To ensure that γ2 subunits were integrated into the heteropentamers, we injected fivefold more γ2 than the other subunit cRNAs. Diazepam is a positive allosteric modulator of GABAR only if γ2 subunits are present. Therefore, we used this method to confirm the presence of human and dog GABAA receptor containing the γ2 subunit.
(§3) Voltage-clamp measurements were performed as described by Rufener et al.. Oocytes were impaled with two electrodes filled with 3 M KCl, and their membrane potentials were maintained at − 80 mV throughout the experiment. […] Recordings were performed using an automated process equipped with standard two-electrode voltage-clamp configuration (HiClamp system; Multi Channel Systems MCS GmbH). Data were filtered at 10 Hz, captured at 100 Hz and analyzed using proprietary data acquisition and analysis software in MATLAB (Mathworks Inc., Natick, MA, USA). Additional analyses were performed using Excel (Microsoft, Redmond, WA, USA). […] Graphing the maximum inward currents against the log of agonist concentration produces typical concentration-activation and concentration-inhibition curves, which can be accurately described using individual Hill equations.

Clu-GABA α5β2γ2 = Clu-GABA α5β2γ2 (Canis lupus familiaris, UniProt A0A8I3PC22+A0A8I3RPG5+E2RSQ0)
Chain of Clu-GABA α5β2γ2 (A0A8I3PC22 32-462): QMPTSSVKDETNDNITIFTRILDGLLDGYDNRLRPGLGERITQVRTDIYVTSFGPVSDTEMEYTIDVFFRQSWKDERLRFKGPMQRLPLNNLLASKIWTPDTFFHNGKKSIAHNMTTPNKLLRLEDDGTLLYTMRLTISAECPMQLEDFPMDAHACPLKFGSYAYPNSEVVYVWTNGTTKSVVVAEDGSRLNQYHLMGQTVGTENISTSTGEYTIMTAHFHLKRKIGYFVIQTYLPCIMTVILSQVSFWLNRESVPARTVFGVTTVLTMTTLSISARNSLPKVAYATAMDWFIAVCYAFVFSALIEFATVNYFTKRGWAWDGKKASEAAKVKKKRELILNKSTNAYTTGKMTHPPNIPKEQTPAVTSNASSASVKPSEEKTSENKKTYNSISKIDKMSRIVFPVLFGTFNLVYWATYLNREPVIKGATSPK
Chain of Clu-GABA α5β2γ2 (A0A8I3RPG5 25-473): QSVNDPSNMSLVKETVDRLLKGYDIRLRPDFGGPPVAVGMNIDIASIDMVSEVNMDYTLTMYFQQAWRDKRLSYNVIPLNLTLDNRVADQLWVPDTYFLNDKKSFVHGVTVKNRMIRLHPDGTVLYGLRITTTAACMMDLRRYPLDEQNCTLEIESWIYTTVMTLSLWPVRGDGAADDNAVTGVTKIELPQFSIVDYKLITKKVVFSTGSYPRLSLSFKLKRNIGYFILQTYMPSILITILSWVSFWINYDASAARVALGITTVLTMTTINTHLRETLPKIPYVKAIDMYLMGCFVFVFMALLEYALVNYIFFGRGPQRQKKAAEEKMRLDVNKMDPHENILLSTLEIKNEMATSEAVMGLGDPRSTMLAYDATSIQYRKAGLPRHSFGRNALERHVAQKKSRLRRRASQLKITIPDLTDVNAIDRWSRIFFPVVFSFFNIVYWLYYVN
Chain of Clu-GABA α5β2γ2 (E2RSQ0 40-467): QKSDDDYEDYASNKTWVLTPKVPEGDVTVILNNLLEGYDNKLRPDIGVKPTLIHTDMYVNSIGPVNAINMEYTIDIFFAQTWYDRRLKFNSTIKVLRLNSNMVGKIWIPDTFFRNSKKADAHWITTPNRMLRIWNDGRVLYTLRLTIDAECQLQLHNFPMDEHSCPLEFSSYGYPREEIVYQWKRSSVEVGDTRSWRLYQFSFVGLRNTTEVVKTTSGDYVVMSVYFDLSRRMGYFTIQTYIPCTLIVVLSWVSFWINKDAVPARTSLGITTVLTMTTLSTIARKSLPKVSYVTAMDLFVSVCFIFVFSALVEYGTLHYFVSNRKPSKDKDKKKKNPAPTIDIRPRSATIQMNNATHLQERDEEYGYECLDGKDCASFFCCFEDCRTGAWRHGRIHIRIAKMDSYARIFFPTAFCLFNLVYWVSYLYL
Description: as §1, §2, §3

Clu-GABA α1β2γ2 = Clu-GABA α1β2γ2 (Canis lupus familiaris, UniProt A0A2H4NNI8+A0A8I3RPG5+E2RSQ0)
Chain of Clu-GABA α1β2γ2 (A0A2H4NNI8 28-456): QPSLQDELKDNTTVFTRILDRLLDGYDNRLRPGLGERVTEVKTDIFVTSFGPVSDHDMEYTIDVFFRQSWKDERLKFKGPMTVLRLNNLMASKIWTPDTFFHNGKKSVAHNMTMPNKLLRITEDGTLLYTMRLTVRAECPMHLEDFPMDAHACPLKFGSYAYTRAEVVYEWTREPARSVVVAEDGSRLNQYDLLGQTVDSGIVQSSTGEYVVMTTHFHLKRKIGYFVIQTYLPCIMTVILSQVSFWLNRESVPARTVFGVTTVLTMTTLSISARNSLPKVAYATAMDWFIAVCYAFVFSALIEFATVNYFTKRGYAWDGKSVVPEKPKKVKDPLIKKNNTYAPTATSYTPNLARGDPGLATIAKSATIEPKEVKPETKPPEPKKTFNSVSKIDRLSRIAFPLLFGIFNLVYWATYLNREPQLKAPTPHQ
Chain of Clu-GABA α1β2γ2 (A0A8I3RPG5 25-473): as the sequence (A0A8I3RPG5 25-473) above
Chain of Clu-GABA α1β2γ2 (E2RSQ0 40-467): as the sequence (E2RSQ0 40-467) above
Description: as §1, §2, §3

Clu-GABA α3β2γ2 = Clu-GABA α3β2γ2 (Canis lupus familiaris, UniProt A0A8I3PRS3+A0A8I3RPG5+E2RSQ0)
Chain of Clu-GABA α3β2γ2 (A0A8I3PRS3 29-259): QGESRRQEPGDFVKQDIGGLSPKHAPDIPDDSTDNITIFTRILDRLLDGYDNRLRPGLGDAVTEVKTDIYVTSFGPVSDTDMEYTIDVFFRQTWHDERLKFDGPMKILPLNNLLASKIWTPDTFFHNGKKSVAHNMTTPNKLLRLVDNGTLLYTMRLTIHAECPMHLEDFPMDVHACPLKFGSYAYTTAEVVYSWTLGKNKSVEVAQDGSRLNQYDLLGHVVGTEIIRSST
Chain of Clu-GABA α3β2γ2 (A0A8I3RPG5 25-473): as the sequence (A0A8I3RPG5 25-473) above
Chain of Clu-GABA α3β2γ2 (E2RSQ0 40-467): as the sequence (E2RSQ0 40-467) above
Description: as §1, §2, §3

Clu-GABA α2β3γ2 = Clu-GABA α2β3γ2 (Canis lupus familiaris, UniProt A0A8I3NUI4+A0A8I3S1N5+E2RSQ0)
Chain of Clu-GABA α2β3γ2 (A0A8I3S1N5 29-451): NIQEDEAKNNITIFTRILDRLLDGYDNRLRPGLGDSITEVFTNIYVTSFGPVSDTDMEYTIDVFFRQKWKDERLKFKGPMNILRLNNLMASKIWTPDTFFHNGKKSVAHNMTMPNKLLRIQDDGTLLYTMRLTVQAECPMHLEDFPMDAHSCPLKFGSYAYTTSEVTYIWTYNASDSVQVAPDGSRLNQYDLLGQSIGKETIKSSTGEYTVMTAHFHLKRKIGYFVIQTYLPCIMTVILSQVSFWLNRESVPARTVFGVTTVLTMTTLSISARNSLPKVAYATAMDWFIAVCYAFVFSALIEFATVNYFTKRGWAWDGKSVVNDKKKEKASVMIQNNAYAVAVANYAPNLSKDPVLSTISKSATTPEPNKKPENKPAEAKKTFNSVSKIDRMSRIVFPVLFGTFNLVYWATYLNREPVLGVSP
Chain of Clu-GABA α2β3γ2 (A0A8I3NUI4 101-496): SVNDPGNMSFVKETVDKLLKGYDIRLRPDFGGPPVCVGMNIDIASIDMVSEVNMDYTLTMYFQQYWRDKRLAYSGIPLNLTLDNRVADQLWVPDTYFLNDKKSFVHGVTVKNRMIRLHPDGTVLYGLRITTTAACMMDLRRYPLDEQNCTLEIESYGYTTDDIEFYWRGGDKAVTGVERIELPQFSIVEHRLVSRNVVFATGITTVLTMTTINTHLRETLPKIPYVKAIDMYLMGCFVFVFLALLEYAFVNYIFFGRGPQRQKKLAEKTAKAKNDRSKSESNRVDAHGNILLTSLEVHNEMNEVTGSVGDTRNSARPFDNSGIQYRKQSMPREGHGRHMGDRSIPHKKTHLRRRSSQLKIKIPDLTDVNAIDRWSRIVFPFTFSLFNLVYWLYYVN
Chain of Clu-GABA α2β3γ2 (E2RSQ0 40-467): as the sequence (E2RSQ0 40-467) above
Description: as §1, §2, §3

Hsa-GABA α2β2γ2 = Hsa-GABA α2β2γ2 (Homo sapiens, UniProt P18507+P47869+P47870); parameters: The corresponding open reading frames (ORF) were cloned into the pT7-TS transcription vector; expressed in transfected cells; host or cells: Xenopus laevis oocytes, cRNA injection; settings: concentration-activation curve
Chain of Hsa-GABA α2β2γ2 (P47869 29-451): as the sequence (A0A8I3S1N5 29-451) above
Chain of Hsa-GABA α2β2γ2 (P47870 26-474 isoform P47870-1 limits assumed): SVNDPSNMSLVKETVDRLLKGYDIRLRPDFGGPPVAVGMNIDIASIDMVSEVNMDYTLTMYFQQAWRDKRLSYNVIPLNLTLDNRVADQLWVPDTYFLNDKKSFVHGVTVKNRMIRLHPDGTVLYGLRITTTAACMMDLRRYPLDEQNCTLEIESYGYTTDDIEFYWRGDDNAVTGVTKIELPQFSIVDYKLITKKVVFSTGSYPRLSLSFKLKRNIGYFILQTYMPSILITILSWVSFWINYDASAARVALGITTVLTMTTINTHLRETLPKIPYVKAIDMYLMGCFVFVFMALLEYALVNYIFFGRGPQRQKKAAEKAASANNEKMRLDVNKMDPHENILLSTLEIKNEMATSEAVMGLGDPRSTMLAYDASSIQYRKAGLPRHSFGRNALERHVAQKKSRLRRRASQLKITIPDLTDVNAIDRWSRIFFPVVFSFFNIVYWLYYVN
Chain of Hsa-GABA α2β2γ2 (P18507 40-467 isoform P18507-1 limits assumed): as the sequence (E2RSQ0 40-467) above
Description: as §1, §2, §3

Hsa-GABA α3β2γ2 = Hsa-GABA α3β2γ2 (Homo sapiens, UniProt P18507+P34903+P47870); parameters: The corresponding open reading frames (ORF) were cloned into the pT7-TS transcription vector; expressed in transfected cells; host or cells: Xenopus laevis oocytes, cRNA injection; settings: concentration-activation curve
Chain of Hsa-GABA α3β2γ2 (P34903 29-492): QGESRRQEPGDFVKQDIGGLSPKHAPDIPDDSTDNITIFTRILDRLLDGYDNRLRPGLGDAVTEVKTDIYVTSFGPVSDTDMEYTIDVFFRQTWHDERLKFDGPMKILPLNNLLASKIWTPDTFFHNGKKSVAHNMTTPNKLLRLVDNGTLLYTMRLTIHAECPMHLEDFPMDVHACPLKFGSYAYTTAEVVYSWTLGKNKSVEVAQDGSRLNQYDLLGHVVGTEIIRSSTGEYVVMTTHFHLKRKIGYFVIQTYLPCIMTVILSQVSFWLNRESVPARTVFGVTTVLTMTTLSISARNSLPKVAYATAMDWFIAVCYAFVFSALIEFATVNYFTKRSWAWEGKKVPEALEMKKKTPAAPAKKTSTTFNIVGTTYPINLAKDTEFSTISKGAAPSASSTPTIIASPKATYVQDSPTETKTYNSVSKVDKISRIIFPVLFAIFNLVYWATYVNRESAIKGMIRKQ
Chain of Hsa-GABA α3β2γ2 (P47870 26-474 isoform P47870-1 limits assumed): as the sequence (P47870 26-474 isoform P47870-1 limits assumed) above
Chain of Hsa-GABA α3β2γ2 (P18507 40-467 isoform P18507-1 limits assumed): as the sequence (E2RSQ0 40-467) above
Description: as §1, §2, §3

[1] = agonist, 10 s applications, Xenopus oocytes, −80 mV

Chain of Clu-GABA α2β2γ2 (A0A8I3S1N5 29-451): as the sequence (A0A8I3S1N5 29-451) above
Chain of Clu-GABA α2β2γ2 (A0A8I3RPG5 25-473): as the sequence (A0A8I3RPG5 25-473) above
Chain of Clu-GABA α2β2γ2 (E2RSQ0 40-467): as the sequence (E2RSQ0 40-467) above

## NCCCC(=O)O [GABA, gamma-aminobutyric acid]
Clu-GABA α2β2γ2; [1]
  EC50: 42 µM
Clu-GABA α2β2γ2; concentration-activation curve
  nH (Hill coefficient): 1.3
Clu-GABA α5β2γ2; [1]
  EC50: 8.1 µM
Clu-GABA α5β2γ2; concentration-activation curve
  nH (Hill coefficient): 1.1
Clu-GABA α1β2γ2; [1]
  EC50: 10 µM
Clu-GABA α1β2γ2; concentration-activation curve
  nH (Hill coefficient): 1.0
Clu-GABA α3β2γ2; [1]
  EC50: 40.4 µM
Clu-GABA α3β2γ2; concentration-activation curve
  nH (Hill coefficient): 0.8
Clu-GABA α2β3γ2; [1]
  EC50: 8.6 µM
Clu-GABA α2β3γ2; concentration-activation curve
  nH (Hill coefficient): 1.6
Hsa-GABA α2β2γ2
  nH (Hill coefficient): 1.4
Hsa-GABA α3β2γ2
  nH (Hill coefficient): 1.2
